# According to ChEMBL document CHEMBL4052588, “Design of a Biased Potent Small Molecule Inhibitor of the Bromodomain and PHD Finger-Containing (BRPF) Proteins Suitable for Cellular and in Vivo Studies” (J Med Chem, 2017):
# How the values were obtained:
# [1] = biological target: T1, Bromodomain-containing protein 9 (Homo sapiens, UniProt Q9H8M2); test: Inhibition of human BRD9 expressed in Escherichia coli BL21 after 1 hr by BROMOscan assay
# T1 sequence (Q9H8M2 whole entry): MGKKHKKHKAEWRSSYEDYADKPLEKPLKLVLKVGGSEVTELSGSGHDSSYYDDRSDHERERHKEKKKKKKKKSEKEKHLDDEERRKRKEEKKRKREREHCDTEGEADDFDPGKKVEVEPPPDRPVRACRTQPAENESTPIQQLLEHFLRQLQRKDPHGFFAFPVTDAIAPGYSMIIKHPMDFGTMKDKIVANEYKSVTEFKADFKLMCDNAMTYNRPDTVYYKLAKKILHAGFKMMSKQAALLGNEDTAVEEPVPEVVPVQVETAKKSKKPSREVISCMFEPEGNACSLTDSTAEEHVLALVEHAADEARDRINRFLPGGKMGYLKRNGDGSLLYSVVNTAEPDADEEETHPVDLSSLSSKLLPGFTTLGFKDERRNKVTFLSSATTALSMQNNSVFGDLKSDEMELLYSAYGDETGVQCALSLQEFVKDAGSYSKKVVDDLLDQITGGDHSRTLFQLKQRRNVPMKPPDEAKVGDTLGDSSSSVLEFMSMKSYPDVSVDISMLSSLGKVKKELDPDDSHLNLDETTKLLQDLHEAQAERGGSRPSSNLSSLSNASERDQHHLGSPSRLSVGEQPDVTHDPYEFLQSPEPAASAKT
# [2] = biological target: Bromodomain-containing protein 4 (Homo sapiens, UniProt O60885); test: Inhibition of human BRD4-BD1 expressed in Escherichia coli BL21 after 1 hr by BROMOscan assay
# [3] = biological target: T2, Bromodomain and PHD finger-containing protein 3 (Homo sapiens, UniProt Q9ULD4); test: Inhibition of human BRPF3 expressed in Escherichia coli BL21 after 1 hr by BROMOscan assay
# T2 sequence (Q9ULD4 whole entry): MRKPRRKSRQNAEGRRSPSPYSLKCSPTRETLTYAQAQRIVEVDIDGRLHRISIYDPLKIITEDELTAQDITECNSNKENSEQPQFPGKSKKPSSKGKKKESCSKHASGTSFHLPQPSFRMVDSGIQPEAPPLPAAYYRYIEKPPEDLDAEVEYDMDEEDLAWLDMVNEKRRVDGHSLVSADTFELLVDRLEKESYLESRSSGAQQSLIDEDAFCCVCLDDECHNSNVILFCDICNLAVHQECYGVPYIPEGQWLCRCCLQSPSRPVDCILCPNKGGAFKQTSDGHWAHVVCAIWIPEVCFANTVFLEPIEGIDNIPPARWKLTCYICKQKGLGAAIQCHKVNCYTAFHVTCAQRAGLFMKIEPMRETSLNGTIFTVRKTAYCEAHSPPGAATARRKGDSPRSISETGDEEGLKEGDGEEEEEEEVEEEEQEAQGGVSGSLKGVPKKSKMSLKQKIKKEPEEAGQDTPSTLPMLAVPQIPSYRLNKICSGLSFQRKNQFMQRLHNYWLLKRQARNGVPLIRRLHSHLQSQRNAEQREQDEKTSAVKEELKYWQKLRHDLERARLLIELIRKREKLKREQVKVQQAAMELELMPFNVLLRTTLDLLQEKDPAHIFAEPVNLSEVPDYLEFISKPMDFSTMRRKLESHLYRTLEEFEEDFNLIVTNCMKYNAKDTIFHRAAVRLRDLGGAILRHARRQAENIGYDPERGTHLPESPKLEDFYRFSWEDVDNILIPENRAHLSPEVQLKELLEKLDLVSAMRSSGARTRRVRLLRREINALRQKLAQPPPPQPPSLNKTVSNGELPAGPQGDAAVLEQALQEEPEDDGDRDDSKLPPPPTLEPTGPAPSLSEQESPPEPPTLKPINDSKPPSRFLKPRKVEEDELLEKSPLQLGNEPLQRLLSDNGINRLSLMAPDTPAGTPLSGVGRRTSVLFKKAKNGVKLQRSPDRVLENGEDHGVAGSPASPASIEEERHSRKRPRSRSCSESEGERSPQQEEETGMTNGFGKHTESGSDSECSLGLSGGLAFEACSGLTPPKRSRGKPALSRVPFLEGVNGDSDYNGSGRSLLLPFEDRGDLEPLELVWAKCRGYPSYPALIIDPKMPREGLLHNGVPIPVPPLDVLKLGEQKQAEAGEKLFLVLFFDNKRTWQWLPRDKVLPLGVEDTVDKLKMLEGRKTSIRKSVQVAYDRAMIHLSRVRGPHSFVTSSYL
# [4] = biological target: T3, Bromodomain-containing protein 1 (Homo sapiens, UniProt O95696); test: Inhibition of human BRPF2-BRD1 expressed in Escherichia coli BL21 after 1 hr by BROMOscan assay
# T3 sequence (O95696 whole entry): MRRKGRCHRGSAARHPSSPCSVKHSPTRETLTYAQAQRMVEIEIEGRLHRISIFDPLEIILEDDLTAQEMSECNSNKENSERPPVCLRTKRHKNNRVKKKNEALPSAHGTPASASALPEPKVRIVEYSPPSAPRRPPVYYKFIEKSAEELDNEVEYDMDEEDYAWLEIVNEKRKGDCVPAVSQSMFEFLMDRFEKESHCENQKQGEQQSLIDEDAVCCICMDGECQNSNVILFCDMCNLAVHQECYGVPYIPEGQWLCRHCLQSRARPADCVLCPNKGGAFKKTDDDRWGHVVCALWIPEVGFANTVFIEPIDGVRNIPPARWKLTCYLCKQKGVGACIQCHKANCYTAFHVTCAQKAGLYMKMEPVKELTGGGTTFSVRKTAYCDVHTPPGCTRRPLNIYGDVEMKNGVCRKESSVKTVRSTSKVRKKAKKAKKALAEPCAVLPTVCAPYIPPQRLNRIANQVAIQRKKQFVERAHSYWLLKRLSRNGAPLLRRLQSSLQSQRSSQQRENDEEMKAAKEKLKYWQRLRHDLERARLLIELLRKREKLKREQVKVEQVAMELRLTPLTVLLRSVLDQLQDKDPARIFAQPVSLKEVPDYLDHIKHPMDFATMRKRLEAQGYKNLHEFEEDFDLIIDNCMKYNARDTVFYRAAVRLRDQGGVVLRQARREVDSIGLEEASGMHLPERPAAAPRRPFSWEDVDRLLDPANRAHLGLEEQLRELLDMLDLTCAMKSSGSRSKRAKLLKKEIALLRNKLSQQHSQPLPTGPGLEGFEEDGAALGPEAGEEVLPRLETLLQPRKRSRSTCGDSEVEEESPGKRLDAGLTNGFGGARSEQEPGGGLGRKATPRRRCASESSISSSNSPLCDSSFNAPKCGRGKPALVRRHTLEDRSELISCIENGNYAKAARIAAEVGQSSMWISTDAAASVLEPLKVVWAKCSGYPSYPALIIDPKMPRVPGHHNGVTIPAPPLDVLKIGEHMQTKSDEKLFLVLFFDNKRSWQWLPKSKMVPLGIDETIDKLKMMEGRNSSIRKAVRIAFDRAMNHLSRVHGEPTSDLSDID
SMILES,IC50 [1] [nM],IC50 [2] [µM],IC50 [3] [µM],IC50 [4] [nM]
Cn1c(=O)ccc2cc(NS(=O)(=O)c3ccc(C#N)c(Cl)c3)ccc21,2500,7.2,2.3,450
COc1ccccc1C(=O)Nc1cc2cc(C)c(=O)n(C)c2cc1N1CCCC1,420,4.6,12,2600
COc1cc2c(cc1NS(=O)(=O)c1ccc(C#N)cc1)c(C)cc(=O)n2C,890,17,9.3,1800
CCc1cc2cc(NS(=O)(=O)c3ccc(C#N)cc3)ccc2n(CC)c1=O,> 100000,> 100,> 100,> 100000
Cc1cc2cc(NS(=O)(=O)c3ccc(C#N)cc3)ccc2n(C)c1=O,310,4.5,0.26,48
